Source: PubChem BioAssay AID330 (DTP/NCI, 2004)
Values joined by “and” are separate entries in the source; they are usually repeats but may differ in a detail not shown here. Equal entries are not always repeated. Inconclusive results and toxic doses are left out.

Test system: P388 leukemia ip, CD2F1 mice, survival T/C
Assay: NCI In Vivo Anticancer Drug Screen. Data for tumor model P388 Leukemia (intraperitoneal) in CD2F1 (CDF1) mice
Conditions: endpoint: median survival time, higher = longer survival
Outline: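 Mice carrying the transplanted tumor received test compound or vehicle. Survival was recorded in each group, and the value is the treated-group measurement divided by that of the vehicle-treated control group.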

[1] = dose: 100.0 mg/kg/injection, schedule: Q01DX005 (ip), vehicle: saline with Tween-80
[2] = dose: 25.0 mg/kg/injection, schedule: Q01DX009 (ip), vehicle: saline
[3] = dose: 50.0 mg/kg/injection, schedule: Q01DX005 (ip), vehicle: saline
[4] = dose: 50.0 mg/kg/injection, schedule: Q01DX009 (ip), vehicle: saline
[5] = dose: 100.0 mg/kg/injection, schedule: Q01DX005 (ip), vehicle: saline
[6] = dose: 200.0 mg/kg/injection, schedule: Q01DX005 (ip), vehicle: saline
[7] = dose: 50.0 mg/kg/injection, schedule: Q01DX009 (ip), vehicle: saline with Tween-80
[8] = dose: 100.0 mg/kg/injection, schedule: Q01DX009 (ip), vehicle: saline with Tween-80
[9] = dose: 50.0 mg/kg/injection, schedule: Q01DX005 (ip), vehicle: Klucel (hydroxypropylcellulose) (HPC)
[10] = dose: 100.0 mg/kg/injection, schedule: Q01DX005 (ip), vehicle: Klucel (hydroxypropylcellulose) (HPC)
[11] = dose: 200.0 mg/kg/injection, schedule: Q01DX005 (ip), vehicle: Klucel (hydroxypropylcellulose) (HPC)
[12] = dose: 12.5 mg/kg/injection, schedule: Q01DX009 (ip), vehicle: saline with Tween-80
[13] = dose: 25.0 mg/kg/injection, schedule: Q01DX009 (ip), vehicle: saline with Tween-80

Question: With `CNC(=O)OCc1cn(-c2ccc(Cl)c(Cl)c2)nc1COC(=O)NC` as the molecule, how does the T/C (dose: 0.05 mg/kg/injection, schedule: Q01DX009 (ip), vehicle: distilled water + Tween-80) read?
Answer: 103 % of control

Question: And the T/C (dose: 0.1 mg/kg/injection, schedule: Q01DX009 (ip), vehicle: distilled water + Tween-80)?
Answer: 86 % of control

Question: And the T/C (dose: 0.2 mg/kg/injection, schedule: Q01DX009 (ip), vehicle: distilled water + Tween-80)?
Answer: 94 % of control

Question: And the T/C (dose: 0.4 mg/kg/injection, schedule: Q01DX009 (ip), vehicle: distilled water + Tween-80)?
Answer: 99 % of control

Question: And the T/C (dose: 3.12 mg/kg/injection, schedule: Q01DX009 (ip), vehicle: distilled water + Tween-80)?
Answer: 88 % of control

Question: What about the T/C (dose: 25.0 mg/kg/injection, schedule: Q01DX009 (ip), vehicle: distilled water + Tween-80) of the same molecule?
Answer: 89 % of control

Question: And the T/C (dose: 50.0 mg/kg/injection, schedule: Q01DX009 (ip), vehicle: distilled water + Tween-80)?
Answer: 92 % of control

Question: And the T/C (dose: 100.0 mg/kg/injection, schedule: Q01DX009 (ip), vehicle: distilled water + Tween-80)?
Answer: 90 % of control

Question: Which T/C [1] does the source give for `COC(=O)CN1C(=O)c2cccc3cc(N)cc(c23)C1=O` here?
Answer: 87 % of control

Question: `CN(c1ccccc1)c1c2c(oc(=O)c1Cl)CCSC2` was tested. Which T/C (dose: 100.0 mg/kg/injection, schedule: Q04DX003 (ip), vehicle: saline with Tween-80) did it give?
Answer: 94 % of control

Question: What about the T/C (dose: 200.0 mg/kg/injection, schedule: Q04DX003 (ip), vehicle: saline with Tween-80) of the same molecule?
Answer: 98 % of control

Question: What about the T/C (dose: 400.0 mg/kg/injection, schedule: Q04DX003 (ip), vehicle: saline with Tween-80) of the same molecule?
Answer: 91 % of control

Question: For `NC(=S)N/N=C/c1ncccc1O`, which T/C [2] is on record?
Answer: 158 % of control

Question: And the T/C [3]?
Answer: 155 % of control

Question: What about the T/C [4] of the same molecule?
Answer: 151 % of control and 158 % of control

Question: What about the T/C [5] of the same molecule?
Answer: 162 % of control

Question: And the T/C (dose: 100.0 mg/kg/injection, schedule: Q01DX005 (ip), vehicle: suspension in saline)?
Answer: 167 % of control

Question: And the T/C (dose: 100.0 mg/kg/injection, schedule: Q01DX009 (ip), vehicle: saline)?
Answer: 180 % of control

Question: And the T/C [6]?
Answer: 157 % of control

Question: And the T/C (dose: 200.0 mg/kg/injection, schedule: Q01DX005 (ip), vehicle: suspension in saline)?
Answer: 90 % of control

Question: How did the T/C [7] turn out when `Brc1ccc(C[N+]23CN4CN(CN(C4)C2)C3)cc1` was run?
Answer: 100 % of control

Question: What about the T/C [8] of the same molecule?
Answer: 120 % of control

Question: And the T/C (dose: 100.0 mg/kg/injection, schedule: Q04DX003 (ip), vehicle: saline)?
Answer: 110 % of control

Question: What about the T/C (dose: 200.0 mg/kg/injection, schedule: Q04DX003 (ip), vehicle: saline) of the same molecule?
Answer: 110 % of control

Question: For `COC(=O)c1cc(-c2ccccc2)[nH]c1-c1ccccc1`, which T/C (dose: 12.5 mg/kg/injection, schedule: Q01DX009 (ip), vehicle: saline) is on record?
Answer: 105 % of control

Question: And the T/C [2]?
Answer: 104 % of control

Question: What about the T/C [4] of the same molecule?
Answer: 102 % of control

Question: With `O=C(c1ccccc1)[C@@]12COc3ccccc3[C@@H]1ON=C2c1ccccc1` as the molecule, how does the T/C [9] read?
Answer: 89 % of control

Question: What about the T/C [10] of the same molecule?
Answer: 88 % of control

Question: What about the T/C [11] of the same molecule?
Answer: 91 % of control

Question: Which results are given for `CCCCCCCCCCCCCCCCS(=O)CC(O)COC(=O)c1ccc(C(=O)OCC(O)CS(=O)CCCCCCCCCCCCCCCC)cc1` (centres undefined)?
Answer: T/C (dose: 25.0 mg/kg/injection, schedule: Q01DX009 (ip), vehicle: other): 104 % of control; T/C (dose: 50.0 mg/kg/injection, schedule: Q01DX009 (ip), vehicle: other): 114 % of control; T/C (dose: 100.0 mg/kg/injection, schedule: Q01DX009 (ip), vehicle: other): 122 % of control

Question: `C=CCSc1nc2ccc(N=Cc3ccc([N+](=O)[O-])cc3)cc2s1` was tested. Which T/C (dose: 6.25 mg/kg/injection, schedule: Q01DX009 (ip), vehicle: Klucel (hydroxypropylcellulose) (HPC)) did it give?
Answer: 99 % of control

Question: What about the T/C (dose: 12.5 mg/kg/injection, schedule: Q01DX009 (ip), vehicle: Klucel (hydroxypropylcellulose) (HPC)) of the same molecule?
Answer: 98 % of control

Question: What about the T/C (dose: 25.0 mg/kg/injection, schedule: Q01DX009 (ip), vehicle: Klucel (hydroxypropylcellulose) (HPC)) of the same molecule?
Answer: 105 % of control

Question: For `NC(=O)C1C2CC3C(C2O)C31C(N)=O` (centres undefined), which T/C [3] is on record?
Answer: 91 % of control

Question: And the T/C [5]?
Answer: 92 % of control

Question: What about the T/C [6] of the same molecule?
Answer: 98 % of control

Question: Which results are given for `COc1cc2c(c(OC)c1OC)-c1ccc(O)c(=O)cc1C(NC(C)=O)CC2` (centres undefined)?
Answer: T/C (dose: 2.5 mg/kg/injection, schedule: Q01DX009 (ip), vehicle: Klucel (hydroxypropylcellulose) (HPC)): 100 % of control; T/C (dose: 5.0 mg/kg/injection, schedule: Q01DX009 (ip), vehicle: Klucel (hydroxypropylcellulose) (HPC)): 99 % of control; T/C (dose: 10.0 mg/kg/injection, schedule: Q01DX009 (ip), vehicle: Klucel (hydroxypropylcellulose) (HPC)): 100 % of control and 102 % of control; T/C (dose: 20.0 mg/kg/injection, schedule: Q01DX009 (ip), vehicle: Klucel (hydroxypropylcellulose) (HPC)): 107 % of control and 115 % of control; T/C (dose: 40.0 mg/kg/injection, schedule: Q01DX009 (ip), vehicle: Klucel (hydroxypropylcellulose) (HPC)): 108 % of control; T/C (dose: 80.0 mg/kg/injection, schedule: Q01DX009 (ip), vehicle: Klucel (hydroxypropylcellulose) (HPC)): 110 % of control

Question: Which T/C [12] does the source give for `O=C(CCSC1=NCCCN1)c1ccc(F)cc1` here?
Answer: 111 % of control

Question: And the T/C [13]?
Answer: 118 % of control

Question: What about the T/C [7] of the same molecule?
Answer: 118 % of control and 120 % of control

Question: With `CC(C)(C)C1CC=CC(=O)CC1` (centres undefined) as the molecule, how does the T/C (dose: 100.0 mg/kg/injection, schedule: Q01DX009 (ip), vehicle: Klucel (hydroxypropylcellulose) (HPC)) read?
Answer: 111 % of control

Question: And the T/C (dose: 200.0 mg/kg/injection, schedule: Q01DX009 (ip), vehicle: Klucel (hydroxypropylcellulose) (HPC))?
Answer: 119 % of control

Question: With `C=C1C(=O)OC2/C=C(\C)CC(O)/C=C(\C)CC(OC(=O)/C(=C\C)COC(C)=O)C12` (centres undefined) as the molecule, how does the T/C (dose: 6.25 mg/kg/injection, schedule: Q01DX009 (ip), vehicle: saline with Tween-80) read?
Answer: 98 % of control

Question: What about the T/C [12] of the same molecule?
Answer: 97 % of control

Question: And the T/C [13]?
Answer: 104 % of control

Question: And the T/C [7]?
Answer: 104 % of control

Question: How did the T/C [13] turn out when `CCC1C(=O)NC(=O)C1(C)c1ccccc1` (centres undefined) was run?
Answer: 100 % of control and 102 % of control

Question: What about the T/C [7] of the same molecule?
Answer: 100 % of control and 105 % of control

Question: And the T/C [8]?
Answer: 102 % of control and 103 % of control

Question: What about the T/C (dose: 200.0 mg/kg/injection, schedule: Q01DX009 (ip), vehicle: saline with Tween-80) of the same molecule?
Answer: 102 % of control and 111 % of control

Question: What does the source list for `COc1ccc(C(=O)CCN(C)C)c2ccccc12`?
Answer: T/C [3]: 102 % of control; T/C [5]: 100 % of control; T/C [6]: 93 % of control

Question: For `N#CC#Cc1cccc(C#CC#N)c1`, which T/C (dose: 6.25 mg/kg/injection, schedule: Q01DX001 (ip), vehicle: saline with Tween-80) is on record?
Answer: 110 % of control

Question: What about the T/C (dose: 12.5 mg/kg/injection, schedule: Q01DX001 (ip), vehicle: saline with Tween-80) of the same molecule?
Answer: 100 % of control

Question: For `O=C(NC1c2ccccc2Oc2ccccc21)c1ccc([N+](=O)[O-])cc1`, which T/C (dose: 50.0 mg/kg/injection, schedule: Q01DX005 (ip), vehicle: saline with Tween-80) is on record?
Answer: 102 % of control

Question: What about the T/C [1] of the same molecule?
Answer: 93 % of control

Question: What about the T/C (dose: 200.0 mg/kg/injection, schedule: Q01DX005 (ip), vehicle: saline with Tween-80) of the same molecule?
Answer: 91 % of control

Question: Which T/C [9] does the source give for `CC(C)(C)OC(=O)C1CCON1C1OC(C(O)CO)C2OC(C)(C)OC21` (centres undefined) here?
Answer: 100 % of control

Question: And the T/C [10]?
Answer: 100 % of control and 98 % of control

Question: And the T/C [11]?
Answer: 95 % of control and 104 % of control

Question: `O=c1cc2[nH]c3ccccc3c(=O)n2[nH]1` was tested. Which T/C [9] did it give?
Answer: 98 % of control

Question: And the T/C [10]?
Answer: 97 % of control

Question: What about the T/C [11] of the same molecule?
Answer: 95 % of control

Question: `COc1cc2c(c3oc(=O)cc(CCC(=O)O)c13)C1CC(=O)OC1O2` (centres undefined) was tested. Which T/C (dose: 8.75 mg/kg/injection, schedule: Q01DX005 (ip), vehicle: Klucel (hydroxypropylcellulose) (HPC)) did it give?
Answer: 101 % of control

Question: What about the T/C (dose: 17.5 mg/kg/injection, schedule: Q01DX005 (ip), vehicle: Klucel (hydroxypropylcellulose) (HPC)) of the same molecule?
Answer: 100 % of control

Question: What about the T/C (dose: 35.0 mg/kg/injection, schedule: Q01DX005 (ip), vehicle: Klucel (hydroxypropylcellulose) (HPC)) of the same molecule?
Answer: 97 % of control

Question: Which results are given for `C=C1C(=O)C23C(OC(=O)CCCCCCCCCCCCCCC)C1CCC2C12COC3(O)C(O)C1C(C)(C)CCC2O` (centres undefined)?
Answer: T/C (dose: 3.75 mg/kg/injection, schedule: Q01DX009 (ip), vehicle: saline with Tween-80): 101 % of control; T/C (dose: 7.5 mg/kg/injection, schedule: Q01DX009 (ip), vehicle: saline with Tween-80): 104 % of control; T/C (dose: 15.0 mg/kg/injection, schedule: Q01DX009 (ip), vehicle: saline with Tween-80): 103 % of control; T/C (dose: 30.0 mg/kg/injection, schedule: Q01DX009 (ip), vehicle: saline with Tween-80): 99 % of control
